In the case of `Cc1ccc([N+](=O)[O-])c(C=C2C(=O)NC(=O)N2C)c1`, the melting point lay in the range of 261 to 262 °C.

As to `C[C@@H](CN1CCc2ccc3c(c21)CCO3)NC(=O)OC(C)(C)C`, the melting point was 141 to 142 °C.

In turn, `CC(C)(O)C(C)(O)Cc1ccccc1` (centres undefined) gave a melting point of 72 to 74 °C.

Compound `Oc1cc(C(F)(F)F)nc2cc(C(F)(F)F)ccc12` registered a melting point of 184 to 185 °C.

In turn, `CN(C)c1c[nH]c2ncccc12` showed a melting point of 144 to 152 °C.

For the compound `Cc1cc(C2(C(F)(F)F)C=NC(c3ccccc3)C2)ccc1NC(=O)c1cccc(I)c1C(=O)NC(C)C` (centres undefined), the melting point fell in the range of 118 to 120 °C.

Compound `COc1cc(OC)cc(N2CCN(C(=O)Nc3cc(C(C)OC(=O)CCC(=O)O)c(C)nc3OC)CC2)c1` (centres undefined) had a melting point of 158 to 160 °C.

The compound `COc1c(O)ccc2cc[nH]c12` yielded a melting point of 83 to 84 °C.

`CC1(C)COc2cc(O)c(C=O)cc21` registered a melting point of 100 to 102 °C.

`COc1cc2c(cc1OC)CC(=S)N(CCCN(C)C1CCc3cc(OC)c(OC)cc3C1)CC2` (centres undefined) registered a melting point of 70 to 75 °C.

`N#Cc1c(Br)c(Br)n(C(=O)Oc2ccccc2)c1Br`: the melting point lay in the range of 128 to 129 °C.

For the compound `CC(C)C[C@H](NC(=O)c1ccc(Cl)cc1)C(=O)N[C@@H](C(C)C)[C@@H](O)c1c(-c2ccccc2)c1=O`, the melting point was in the range of 116 to 120 °C.

Compound `COc1ccc(O[C@@H]2CN(Cc3ccccc3)C[C@H]2O)cc1` (relative stereo) registered a melting point of 84 to 85 °C.

The compound `CCOC(=O)C(C)(C)Oc1ccc2c(c1)C=C(c1nccn1C)CO2` displayed a melting point of 210 to 215 °C.

Turning to `Cc1ccccc1C1=C(c2cccc(OCc3ccccc3)c2)OS(=O)(=O)CC1`, the melting point was in the range of 257 to 259 °C.

In turn, `COC(=O)Nc1ccc(OCCn2ccnc2)cc1` yielded a melting point of 152 to 153 °C.

As for `CC(C)(C(CC(=O)c1ccccc1)c1cccnc1)[N+](=O)[O-]` (centres undefined), the melting point lay within 134 to 135 °C.

`CCCC(=O)c1cnc2ccsc2c1Cl` came in with a melting point of 78 to 80 °C.

As to `O=c1[nH]c2ncc(-c3ccc4[nH]cnc4c3)nc2n1CCC1CCOCC1`, the melting point lay in the range of 264 to 265 °C.

For `COC(=O)c1ccc(Cl)cc1NC(=O)CSc1cccc(Br)c1`, the melting point was 89 to 90 °C.

Take `Nc1c(F)cc(I)cc1Cl`: the melting point lay in the range of 85 to 87 °C.

Take `CCOC(=O)CN1CCN(C(=O)OC(C)(C)C)CC1`: the melting point was 67 to 69 °C.

Consider `Cc1nnn(CC(I)=C(I)I)n1`, for which the melting point was found to be 111 °C.

Consider `COC(=O)/C=C/c1nccs1`, for which the melting point lay in the range of 75 to 75.5 °C.

Consider `COc1nc(C)cnc1NS(=O)(=O)c1cccnc1-c1ccc(OCc2ccc(C(=O)O)cc2)cc1`, for which the melting point was 204 to 205 °C.

Compound `COc1ccc(CNc2n[nH]c(N=CN(C)C)c2C#N)cc1` had a melting point of 147 to 148 °C.

For the compound `CN1C(=O)CC(=O)N(C2CCCCC2)C1=O`, the melting point is 81 to 82 °C.

Consider `CCOC(=O)CCSC(CC)=NNC(N)=O`, for which the melting point was in the range of 63.5 to 64.5 °C.

As for `Cn1c(C(F)(F)F)cc(=O)n(-c2c(F)cc(Cl)c3nc(N)oc23)c1=O`, the melting point lay in the range of 144 to 150 °C.

Turning to `C=CCNc1c(C(N)=O)cnc2cn[nH]c12`, the melting point lay in the range of 254 to 258 °C.

Turning to `CCCc1c(C(=O)C(C)C)c2ccc(C(=O)O)cc2n1Cc1ccc(Br)cc1F`, the melting point lay within 210 to 211 °C.

Consider `CCOCCn1cc2c(C3C(=O)Nc4ccc(Br)cc43)nc(NCC(C)O)nc2n1` (centres undefined), for which the melting point fell in the range of 298 to 300 °C.

With `COc1ccc(N=C(C#Cc2ccccc2)N2CCN(Cc3ccccc3)CC2)cc1`, the melting point came out at 104 °C.

`Cc1cc(Oc2c(Cl)cc(C(F)(F)F)cc2Cl)nn1C(=S)NCC1CCCO1` (centres undefined) gave a melting point of 69 to 71 °C.

For `O=C(CC1CC1)N[C@H]1CC[C@H](CCN2CCN(c3nccc4c3OCC4)CC2)CC1`, the melting point is 198 °C.

Regarding `COc1ccc2c(c1)sc1nc(Nc3ccccc3)nc(=Nc3ccccc3)n12`, the melting point lay in the range of 213 to 214 °C.

Consider `CSCC(=O)[C@H](Cc1ccccc1)NC(=O)[C@H](CC(C)C)NC(=O)OCc1ccccc1`, for which the melting point fell in the range of 81 to 91 °C.

Take `Cc1oc(-c2ccccc2)nc1CCOc1cccc2sccc12`: the melting point was in the range of 130 to 132 °C.

The compound `COc1ccc(Oc2ccc([N+](=O)[O-])cc2)c(Cl)c1Cl` displayed a melting point of 165 to 166 °C.

Regarding `CCCCCCCCCCOc1cc(OCCCCCCc2cccc(O)c2O)cc(C(=O)O)c1`, the melting point was 86 to 88 °C.

Turning to `NC(=O)CCc1cc(C(=O)O)cc(S(N)(=O)=O)c1Oc1ccccc1`, the melting point lay in the range of 192 to 196 °C.

`CC(C)COC(=O)Sc1ccc(-c2ccc(C(CCl)NC(=O)c3c(F)cccc3F)cc2)cc1` (racemic) displayed a melting point of 171 to 173 °C.

Consider `CC(=O)Nc1ccc(-n2c(N)nc3ccccc32)cc1`, for which the melting point is 246 to 248 °C.

The compound `C=CCOc1cc(NCC)c(C(C)=O)cc1C(C)=O` displayed a melting point of 82 to 83 °C.

Take `CC(C)C(=O)O[C@H]1[C@H](C)OC(=O)[C@@H](NC(=O)OC(C)(C)C)COC(=O)[C@@H]1CC(=O)OC(C)(C)C`: the melting point was 170 to 172 °C.

Turning to `CN(C)C=C(Cc1ccccc1)C(=O)c1cccnc1Cl`, the melting point was in the range of 115 to 120 °C.

`Cc1ccc(-c2nc(NCCN3CCOCC3)cc(Sc3ccc(Cl)cc3)n2)cc1`: the melting point fell in the range of 141 to 142 °C.

In turn, `Fc1cc(CC2(Cc3ccnc(F)c3)c3ccccc3-c3cccnc32)ccn1` came in with a melting point of 128 to 130 °C.

In turn, `CC(C)C[C@H](NC(=O)C1(N)CCCCC1)C(=O)NCC(N)=O` yielded a melting point of 136 to 147 °C.

`CCNc1nc(=S)n(Cc2ccc(OC)c(OC3CCCC3)c2)c2nc[nH]c12` yielded a melting point of 72 to 77 °C.

The compound `Cc1ccc(-c2nccc3c(CC(=O)O)cccc23)cc1` returned a melting point of 223 to 224 °C.

As for `O=Cc1csc(Nc2ccc(F)cc2)n1`, the melting point fell in the range of 152 to 155 °C.

Take `N=C(NCC1(O)COc2ccccc2OC1)Nc1ccccc1`: the melting point lay in the range of 184 to 187 °C.

Compound `COc1cc([N+](=O)[O-])c(F)cc1Cl` came in with a melting point of 69 to 70 °C.

`CC(=O)Nc1ccc(OC2CCC3C4CCC5N(C)C(=O)CCC5(C)C4CCC23C)cc1` (centres undefined) registered a melting point of 340 °C.

In turn, `CNC(=O)ON=C1N=C(c2ccc(Cl)cc2)C(C)(C)S1` registered a melting point of 147 to 149 °C.

Compound `CC(C)(CO)CNC(=O)c1ccc2c(c1)C(=NNc1ccc(S(N)(=O)=O)cc1)C(=O)N2` registered a melting point above 230 °C.

`Nc1ccccc1NC(=O)c1cc2cc(OCCO)ccc2[nH]1` registered a melting point of 222 to 223 °C.

Take `CCOC(=O)C1=C(COCc2nnn(CC(N)=O)n2)NC(C)=C(C(=O)OC)C1c1cccc(Cl)c1Cl` (centres undefined): the melting point lay in the range of 130 to 132 °C.

`CCOC(=O)c1c(C)cc2c(c1C)c(=O)n(-c1ccccc1Cl)c(=O)n2CC(=O)N(CC)CC`: the melting point fell in the range of 228 to 229 °C.

`CC(C)c1[nH]n(-c2c(Cl)cc(Cl)cc2Cl)c2nc(Cc3ccc(N=C=O)cc3)nc(=O)c1-2` yielded a melting point of 233 to 235 °C.

In the case of `CC(=O)ON(C(N)=O)C(C)c1cc2ccccc2s1` (centres undefined), the melting point came to 138 °C.

For the compound `Cn1c2ccccc2c2c3ccccc3ccc21`, the melting point is 116 to 118 °C.

Regarding `O=C(Nc1cccnn1)N1CCN(c2nccc(-c3c(F)cccc3F)n2)CC1`, the melting point lay in the range of 228 to 229 °C.

For the origin of these results see a melting point compilation (Tetko et al.; mined from patent text by program, amines drawn as free bases though some values may be those of a salt).
